Experimental data published in paper PMC10762035, “Molecular basis of human trace amine-associated receptor 1 activation” (Nature Communications, 2024).
Numbering of substitutions follows the chain as printed. “And” between values parts separate entries of the source, which are not always exact repeats. Equal values may be shown once.

Tests used:
[1] = molecular target: T1, hTA1 b2N (Homo sapiens, UniProt Q96RJ0); experiment: GloSensor cAMP accumulation assay, b2N construct; format: cell-based; conditions: b2N, n=2
T1 construct: read by me as the first 25 residues of β2AR (N); expressed in transfected cells; host or cells: HEK293T

[2] = molecular target: T2, hTA1 W264F (Homo sapiens, UniProt Q96RJ0, W264F); experiment: GloSensor cAMP accumulation assay, W264F mutant; format: cell-based;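 note: cells transiently transfected with receptor plus GloSensor, luminescence read 30 min after agonist addition at room temperature, concentration-response curves fitted by log(agonist) vs response regression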
T2 construct: expressed in transfected cells; host or cells: HEK293T
T2 sequence (Q96RJ0 1-339 W264F): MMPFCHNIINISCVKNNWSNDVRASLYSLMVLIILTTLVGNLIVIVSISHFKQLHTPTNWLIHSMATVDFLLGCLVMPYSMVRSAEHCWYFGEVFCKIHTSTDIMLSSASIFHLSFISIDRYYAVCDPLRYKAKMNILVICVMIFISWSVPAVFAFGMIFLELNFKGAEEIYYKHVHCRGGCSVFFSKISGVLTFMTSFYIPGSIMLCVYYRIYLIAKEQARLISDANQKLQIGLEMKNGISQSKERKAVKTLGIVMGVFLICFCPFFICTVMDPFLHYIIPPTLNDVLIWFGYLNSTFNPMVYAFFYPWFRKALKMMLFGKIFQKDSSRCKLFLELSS

[3] = molecular target: T3, hTA1 T194A (Homo sapiens, UniProt Q96RJ0, T194A); experiment: GloSensor cAMP accumulation assay, T194A mutant; conditions: for cAMP accumulation response, individual replicate values of the concentration-response curve: hTA1 T194A, log[Agonist], Supplementary Figure 5 source data
T3 sequence (Q96RJ0 1-339 T194A): T2 sequence (Q96RJ0 1-339 W264F) with T194A, F264W

[4] = molecular target: T4, hTA1 C88/178S (Homo sapiens, UniProt Q96RJ0, C178S/C88S); experiment: GloSensor cAMP accumulation assay, C88S/C178S double mutant; format: cell-based; conditions: for Normalized Luminescence Counts (N=2): log[Compound], single replicate values
T4 construct: expressed in transfected cells; host or cells: HEK293T
T4 sequence (Q96RJ0 1-339 C88S/C178S): T2 sequence (Q96RJ0 1-339 W264F) with C88S, C178S, F264W

[5] = molecular target: T5, hTA1 C178S (Homo sapiens, UniProt Q96RJ0, C178S); experiment: GloSensor cAMP accumulation assay, C178S mutant; format: cell-based; conditions: for C178S - Normalized Luminescence Counts (N=2): log[Compound], single replicates
T5 construct: expressed in transfected cells; host or cells: HEK293T
T5 sequence (Q96RJ0 1-339 C178S): T2 sequence (Q96RJ0 1-339 W264F) with C178S, F264W

[6] = C88S, C178S, each row is one independent experiment, 3 replicates
[7] = C178S, each row one experiment (N=2), 3 replicates

T1 sequence (Q96RJ0 with tags, fused parts or gaps): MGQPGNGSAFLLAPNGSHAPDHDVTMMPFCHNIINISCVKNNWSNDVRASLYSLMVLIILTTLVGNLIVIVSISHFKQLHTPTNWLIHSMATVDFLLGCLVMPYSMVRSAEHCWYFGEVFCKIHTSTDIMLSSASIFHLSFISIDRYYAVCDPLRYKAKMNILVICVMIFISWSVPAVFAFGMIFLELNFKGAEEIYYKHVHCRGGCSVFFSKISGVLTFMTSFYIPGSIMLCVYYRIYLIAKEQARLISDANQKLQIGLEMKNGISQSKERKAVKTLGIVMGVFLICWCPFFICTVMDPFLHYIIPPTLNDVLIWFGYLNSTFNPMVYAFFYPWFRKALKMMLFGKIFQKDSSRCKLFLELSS

With `NCCc1ccccc1` [β-PEA, β-phenethylamine] the “Span ± SEM (Emax normalized to β-PEA)” value [1] was 100 ± 3.11, the “pEC50 ± SEM” value [1] was 7.59 ± 0.07 and the EC50 ([1]; read-out: EC50) was 25.4 nM. The “ΔEmax values (each mutant value - WT average)” value ([2]; W246F mutant (so in the source) minus WT average) was 0, the “pEC50 values, Mean” value ([2]; W246F mutant (so in the source), each line an independent experiment, 3 replicates) was 5.329 and 5.8775 and the “Emax values, Mean” value ([2]; W246F mutant (so in the source), β-PEA = 100, each line an independent experiment, 3 replicates) was 100. The “Span ± SEM (Emax normalized to β-PEA)” value ([2]; W264F, n=2) was 100 ± 4.75, the “pEC50 ± SEM” value ([2]; W264F, n=2) was 5.6 ± 0.06 and the EC50 ([2]; W264F, n=2, read-out: EC50) was 2490 nM. For the same compound, the “pEC50 values, Mean” value ([3]; T149A (so in the source), single experiments (3 replicates each)) was 7.395 and 7.196 and 7.094, the “Emax values, Mean” value ([3]; T149A (so in the source), single experiments (3 replicates each), β-PEA = 100) was 100 and the EC50 ([3]; T194A) was 63.6 nM. The “Span ± SEM (Emax normalized to β-PEA)” value ([3]; T194A) was 100 ± 2.46, the “pEC50 ± SEM” value ([3]; T194A) was 7.23 ± 0.13 and the “cAMP accumulation response, individual replicate values of the concentration-response curve” value (“cAMP accumulation response” below) ([3]; M = -7.522) was 32.1474 and 24.1931 and 33.6304 and 28.9237 and 30.7017 and 33.27 and 42.7604 and 43.2488 and 44.1811. For the same compound, the “cAMP accumulation response” value ([3]; M = -8) was 31.2036 and 13.6773 and 15.1603 and 14.8971 and 13.5142 and 22.7372 and 24.6907 and 22.9592, the “cAMP accumulation response” value ([3]; M = -8.522) was 3.836 and 0.5999 and 3.97 and 8.1802 and 2.846 (2×) and 8.885 and 8.264 and 10.2172 and the “cAMP accumulation response” value ([3]; M = -9) was 2.487 and 2.892 and 1.813 and 0.4755 and 2.056 and 3.424 and 1.293 (2×). The “cAMP accumulation response” value ([3]; M = -9.522) was 1.678 and 0.1954 and 0.8695 and 0.08035 (2×) and -0.5123 and 0.3166 and -0.7046 and 0.139, the “cAMP accumulation response” value ([3]; M = -10) was -0.6135 and -0.209 and 0.1954 and -0.5123 and -0.3148 and -0.08302 and -0.1718 and -0.749 and the “cAMP accumulation response” value ([3]; M = -10.522) was -0.4787 and -1.692 and -1.557 and -1.303 (2×) and -1.5 and -0.7934 and -0.6602 and -0.6158. The “cAMP accumulation response” value ([3]; M = -11) was -1.4224 (2×) and -0.7483 and -0.9074 and -0.7099 and -0.4382 and -0.8378 and 0.05017, the “cAMP accumulation response” value ([3]; M = -11.522) was 0.4651 and -1.018 and -1.153 and -0.5123 and -0.7099 (2×) and -0.4382 and -1.015 and -0.6602 and the “cAMP accumulation response” value ([3]; M = -12) was -0.07421 (2×) and -1.962 and -1.698 and -1.105 and -0.1274 and -0.6602 and -0.1718. For the same compound, the “cAMP accumulation response” value ([3]; M = -12.522) was 0.0606 and 1.004 and 0.8695 and -0.9074 and -0.7099 and -0.3148 and -0.1718 and -0.305 and 0.1834, the “ΔEmax values (each mutant value - WT average)” value ([3]; minus WT average) was 0 and the “Span ± SEM (Emax normalized to β-PEA)” value ([4]; C88/178S, n=2) was 100 ± 2.48. For the same compound, the “pEC50 ± SEM” value ([4]; C88/178S, n=2) was 6.88 ± 0.05, the EC50 ([4]; C88/178S, n=2, read-out: EC50) was 131 nM and the “pEC50 values, Mean” value [4, 6] was 6.846 and 6.92. For the same compound, the “ΔEmax values (each mutant value - WT average), Mean” value [4, 6] was 0, the “ΔpEC50 values (each mutant value - WT average), Mean” value [4, 6] was -0.2478 and -0.1738 and the “Normalized Luminescence Counts (N=2)” value ([4]; C88S, C178S, M = -5) was 101.882 and 95.4366 and 102.899 and 85.0446 and 70.847 and 114.648. The “Normalized Luminescence Counts (N=2)” value ([4]; C88S, C178S, M = -5.522) was 95.8888 and 94.7581 and 92.1574 and 110.721 and 84.1384 and 118.726, the “Normalized Luminescence Counts (N=2)” value ([4]; C88S, C178S, M = -6) was 93.4012 and 85.4861 and 88.3694 and 88.8206 and 85.1957 and 105.284 and the “Normalized Luminescence Counts (N=2)” value ([4]; C88S, C178S, M = -6.522) was 70.73 and 60.7795 and 60.3272 and 66.7689 and 68.1283 and 68.2793. The “Normalized Luminescence Counts (N=2)” value ([4]; C88S, C178S, M = -7) was 45.3449 and 38.504 and 42.0658 and 45.3213 and 30.2174 and 49.8525, the “Normalized Luminescence Counts (N=2)” value ([4]; C88S, C178S, M = -7.522) was 20.2426 and 24.5959 and 17.7549 and 22.8165 and 30.2174 and 24.931 and the “Normalized Luminescence Counts (N=2)” value ([4]; C88S, C178S, M = -8) was 8.37 and 6.617 and 6.9 and 9.072 and 8.317 and 8.6188. The “Normalized Luminescence Counts (N=2)” value ([4]; C88S, C178S, M = -8.522) was 1.02 and 2.433 and 0.1154 and 4.692 and 3.483 and 4.843, the “Normalized Luminescence Counts (N=2)” value ([4]; C88S, C178S, M = -9) was 0.5677 and 0.7373 and -0.4499 and -0.2925 (2×) and 1.218 and the “Normalized Luminescence Counts (N=2)” value ([4]; C88S, C178S, M = -9.522) was 0.002362 and 0.3416 and -0.5065 and -0.8967 and 0.3116 and 0.009559. The “Normalized Luminescence Counts (N=2)” value ([4]; C88S, C178S, M = -10) was -0.9588 and 0.002362 and -0.3934 and -1.652 and -0.4436 and -1.199, the “Normalized Luminescence Counts (N=2)” value ([4]; C88S, C178S, M = -10.522) was -1.185 and -0.563 and -1.0153 and -1.803 and 0.009559 and -1.35 and the “Normalized Luminescence Counts (N=2)” value ([4]; C88S, C178S, M = -11) was -0.05417 and -0.2238 and 0.4547 and -0.2925 and -1.652 and -0.7456. For the same compound, the “Normalized Luminescence Counts (N=2)” value ([4]; C88S, C178S, M = -11.522) was 0.172 and 0.1154 and 0.7939 and 0.1606 and -1.954 and -0.4436, the “Normalized Luminescence Counts (N=2)” value ([4]; C88S, C178S, M = -12) was 0.172 and -0.6195 and -0.5065 and -0.1415 and -1.35 and 0.9158 and the “Normalized Luminescence Counts (N=2)” value ([4]; C88S, C178S, M = -12.522) was -0.2803 and 0.2285 and 0.002362 and -1.199 and 0.4627 and 0.6137. The “Emax values, Mean” value ([4]; C88S, C178S, normalized (β-PEA = 100), each row is one independent experiment, 3 replicates) was 100, the “pEC50 values, Mean” value [5, 7] was 7.235 and 7.223 and the “ΔpEC50 values (each mutant value - WT average), Mean” value [5, 7] was 0.1416 and 0.1292. For the same compound, the “Span ± SEM (Emax normalized to β-PEA)” value ([5]; C178S, n=2) was 100 ± 2.97, the “pEC50 ± SEM” value ([5]; C178S, n=2) was 7.23 ± 0.07 and the EC50 ([5]; C178S, n=2, read-out: EC50) was 59 nM. The “Emax values, Mean” value ([5]; C178S, β-PEA = 100, each row one experiment (N=2), 3 replicates) was 100, the “C178S - Normalized Luminescence Counts (N=2)” value ([5]; M = -5) was 99.3155 and 106.699 and 98.2875 and 86.7589 and 74.9716 and 83.1688 and the “C178S - Normalized Luminescence Counts (N=2)” value ([5]; M = -5.522) was 92.9136 and 85.3902 and 85.0163 and 113.744 and 82.4209 and 115. For the same compound, the “C178S - Normalized Luminescence Counts (N=2)” value ([5]; M = -6) was 105.577 and 101.792 and 96.652 and 125.741 and 90.4686 and 124.155, the “C178S - Normalized Luminescence Counts (N=2)” value ([5]; M = -6.522) was 93.1473 and 96.0445 and 75.0162 and 77.2154 and 68.719 and 87.1478 and the “C178S - Normalized Luminescence Counts (N=2)” value ([5]; M = -7) was 68.3806 and 62.1189 and 51.4645 and 64.3212 and 56.124 and 61.3594. The “C178S - Normalized Luminescence Counts (N=2)” value ([5]; M = -7.522) was 36.8382 and 29.782 and 30.7166 and 32.2204 and 27.7927 and 32.0708, the “C178S - Normalized Luminescence Counts (N=2)” value ([5]; M = -8) was 16.2772 and 19.3614 and 14.922 and 22.976 and 17.1422 and 19.9245 and the “C178S - Normalized Luminescence Counts (N=2)” value ([5]; M = -8.522) was 3.333 and 3.193 and 2.959 and 9.783 and 5.445 and 7.24. For the same compound, the “C178S - Normalized Luminescence Counts (N=2)” value ([5]; M = -9) was 1.604 and 3.099 and 1.838 and 2.393 and 2.184 and 1.825, the “C178S - Normalized Luminescence Counts (N=2)” value ([5]; M = -9.522) was 0.7163 and 0.2957 and -0.07812 and 1.615 and 0.2691 and 1.107 and the “C178S - Normalized Luminescence Counts (N=2)” value ([5]; M = -10) was 1.791 and 0.9967 and 1.277 and -3.171 and -1.3464 and -0.5985. The “C178S - Normalized Luminescence Counts (N=2)” value ([5]; M = -10.522) was -0.5454 and 0.763 and 0.06206 and -2.244 and -1.825 and -1.7054, the “C178S - Normalized Luminescence Counts (N=2)” value ([5]; M = -11) was 0.1088 and 0.5294 and -0.07812 and 0.3289 and 0.7777 and -1.376 and the “C178S - Normalized Luminescence Counts (N=2)” value ([5]; M = -11.522) was 1.37 and -0.1716 and -0.2183 and -0.6583 and -1.287 and 0.3289. For the same compound, the “C178S - Normalized Luminescence Counts (N=2)” value ([5]; M = -12) was -0.7791 and 0.2957 and -0.265 and -2.932 and -0.03006 and 1.645 and the “C178S - Normalized Luminescence Counts (N=2)” value ([5]; M = -12.522) was -0.452 and -1.34 and -0.6856 and -1.915 and -0.9575 and -0.4489.
